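Growth conditions: 96-well plates. Treatment: test compound, 48 hours, 5 concentrations. Analysis: linear interpolation between bracketing concentrations; unreached endpoints set to highest concentration. GI50 marks 50% less growth.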 Activity calls are given as the source filed them. Cut-off read from the data, not from the text of the source: active = GI50 up to about 1.1 µM and inactive = higher.
Tests used:
Assay in all cases: inhibition of tumour cell growth, NCI panel, 48 h
MDA-N = test system: MDA-N
IGROV-1 = test system: IGROV-1
OVCAR-5 = test system: OVCAR-5
NCI/ADR-RES = test system: NCI/ADR-RES
KM12 = test system: KM12
SN12C = test system: SN12C
MCF7 = test system: MCF7
T47D = test system: T47D
UACC-257 = test system: UACC-257
HCT-116 = test system: HCT-116
LOX IMVI = test system: LOX IMVI
ACHN = test system: ACHN
COLO 205 = test system: COLO 205
A498 = test system: A498
HOP-92 = test system: HOP-92
NCI-H226 = test system: NCI-H226
SW-620 = test system: SW-620
SNB-75 = test system: SNB-75

Measured: GI50

O=C(O)c1ccc(C(O)(c2ccccc2)c2ccccc2)cc1
inactive: MDA-N > 100 µM | IGROV-1 > 100 µM | OVCAR-5 > 100 µM | NCI/ADR-RES > 100 µM | KM12 > 100 µM | SN12C > 100 µM | MCF7 > 100 µM | T47D > 100 µM | UACC-257 > 100 µM | HCT-116 > 100 µM | LOX IMVI > 100 µM | ACHN > 100 µM | COLO 205 > 100 µM

CSC1=C(C#N)C(=O)N(c2ccc(C)cc2)C(=O)C1C#N (stereo unspecified)
inactive: A498 82.4 µM | MDA-N > 100 µM | IGROV-1 > 100 µM | OVCAR-5 > 100 µM | HOP-92 25 µM | KM12 > 100 µM | SN12C > 100 µM | MCF7 > 100 µM | T47D 41.2 µM | UACC-257 > 100 µM | HCT-116 > 100 µM | NCI-H226 > 100 µM | LOX IMVI > 100 µM | ACHN > 100 µM | SW-620 > 100 µM | COLO 205 > 100 µM

O=c1c(Nc2ccccc2)cn(CCOc2ccccc2)c(=O)n1CCOc1ccccc1
inactive: A498 > 100 µM | MDA-N > 100 µM | IGROV-1 36.3 µM | OVCAR-5 57.5 µM | HOP-92 35.6 µM | NCI/ADR-RES 47.2 µM | KM12 > 100 µM | SN12C > 100 µM | MCF7 > 100 µM | UACC-257 83.2 µM | HCT-116 > 100 µM | LOX IMVI > 100 µM | ACHN 37.7 µM | SW-620 > 100 µM | COLO 205 69.3 µM

c1ccc2c(c1)ncn2C1CCCCO1 (stereo unspecified)
inactive: MDA-N > 100 µM | IGROV-1 > 100 µM | OVCAR-5 > 100 µM | HOP-92 > 100 µM | NCI/ADR-RES > 100 µM | KM12 > 100 µM | SN12C > 100 µM | MCF7 > 100 µM | T47D > 100 µM | UACC-257 > 100 µM | HCT-116 > 100 µM | NCI-H226 > 100 µM | LOX IMVI > 100 µM | ACHN > 100 µM | SNB-75 > 100 µM | SW-620 > 100 µM | COLO 205 > 100 µM

CC(=O)N(C(C)=O)n1c(Cc2ccc(Cl)cc2)n[nH]c1=O
inactive: A498 > 100 µM | MDA-N > 100 µM | IGROV-1 > 100 µM | OVCAR-5 > 100 µM | HOP-92 > 100 µM | NCI/ADR-RES > 100 µM | KM12 > 100 µM | SN12C > 100 µM | MCF7 > 100 µM | UACC-257 > 100 µM | HCT-116 > 100 µM | NCI-H226 > 100 µM | LOX IMVI > 88.5 µM | ACHN > 100 µM | SNB-75 > 81.8 µM | SW-620 > 100 µM | COLO 205 > 100 µM

CC(=O)Nc1ccc(S(=O)(=O)Nc2nnc(S(N)(=O)=O)s2)cc1
inactive: A498 > 100 µM | OVCAR-5 > 100 µM | HOP-92 > 100 µM | NCI/ADR-RES > 100 µM | KM12 > 100 µM | MCF7 > 100 µM | T47D > 100 µM | HCT-116 > 100 µM | NCI-H226 > 100 µM | LOX IMVI > 100 µM | ACHN > 100 µM | SNB-75 > 100 µM | SW-620 > 100 µM | COLO 205 > 100 µM

C=C[C@@]1(C)CC2CC[C@]3(C)C(C)=CC(=O)CC3[C@]2(C)CC1O (stereo partly specified)
inactive: A498 > 100 µM | IGROV-1 > 100 µM | OVCAR-5 > 100 µM | HOP-92 > 100 µM | NCI/ADR-RES > 100 µM | KM12 85.3 µM | SN12C > 100 µM | MCF7 > 100 µM | T47D > 100 µM | UACC-257 > 100 µM | HCT-116 91.4 µM | NCI-H226 > 100 µM | LOX IMVI > 100 µM | ACHN > 100 µM | SW-620 > 100 µM | COLO 205 94.4 µM

CSC1=C(C(=O)Nc2ccc(C)cc2)C(N)=NC1=O
inactive: IGROV-1 > 100 µM | HOP-92 > 100 µM | NCI/ADR-RES > 100 µM | KM12 > 100 µM | MCF7 > 100 µM | T47D > 100 µM | UACC-257 > 100 µM | HCT-116 > 100 µM | NCI-H226 > 100 µM | LOX IMVI > 100 µM | ACHN > 100 µM | SNB-75 > 100 µM | SW-620 > 100 µM | COLO 205 > 100 µM

O=S(=O)(O)c1ccc(/N=N/c2ccc(/N=N/c3c(O)ccc4cc(S(=O)(=O)O)ccc34)cc2)cc1
inactive: IGROV-1 > 100 µM | OVCAR-5 > 100 µM | HOP-92 > 100 µM | NCI/ADR-RES > 100 µM | KM12 > 100 µM | MCF7 > 100 µM | UACC-257 > 100 µM | HCT-116 > 100 µM | NCI-H226 > 100 µM | ACHN > 100 µM | SNB-75 > 100 µM | SW-620 > 100 µM | COLO 205 > 100 µM

CC(C)c1ccc(/C=C2/C=C(c3ccc4ccccc4c3)OC2=O)cc1
inactive: A498 > 96.2 µM | IGROV-1 > 85.9 µM | OVCAR-5 > 100 µM | HOP-92 37.8 µM | NCI/ADR-RES 39.5 µM | KM12 62.1 µM | SN12C 57.1 µM | MCF7 88.5 µM | T47D 43 µM | UACC-257 21 µM | HCT-116 68.4 µM | NCI-H226 73.5 µM | LOX IMVI 40.2 µM | ACHN 38.4 µM | SNB-75 > 74.1 µM | SW-620 > 86.5 µM | COLO 205 27.9 µM

CN(C)c1nc2oc(-c3ccccc3)c(-c3ccccc3)c2c2nncn12
inactive: A498 > 100 µM | IGROV-1 > 100 µM | OVCAR-5 > 100 µM | HOP-92 > 100 µM | NCI/ADR-RES > 100 µM | KM12 > 100 µM | SN12C > 100 µM | MCF7 > 100 µM | T47D > 100 µM | UACC-257 > 100 µM | HCT-116 > 100 µM | NCI-H226 > 100 µM | LOX IMVI > 100 µM | ACHN > 100 µM | SNB-75 53.5 µM | SW-620 > 100 µM | COLO 205 > 100 µM

COc1ccc(Cn2c(=O)c(OC)c(C)c3cc4ccccc4cc32)cc1
inactive: MDA-N 34.3 µM | IGROV-1 21.4 µM | OVCAR-5 54.5 µM | NCI/ADR-RES 22.1 µM | KM12 26.5 µM | SN12C 19.8 µM | MCF7 33.7 µM | T47D 33.6 µM | UACC-257 2.99 µM | HCT-116 18.6 µM | NCI-H226 45.7 µM | LOX IMVI 18.4 µM | ACHN 34.6 µM | SNB-75 32.1 µM | SW-620 32.5 µM | COLO 205 20.1 µM

CCNC(=O)Nc1ccccn1
inactive: A498 > 100 µM | MDA-N > 100 µM | IGROV-1 > 100 µM | OVCAR-5 > 100 µM | HOP-92 > 100 µM | KM12 > 100 µM | SN12C > 100 µM | MCF7 > 100 µM | T47D > 100 µM | UACC-257 > 100 µM | HCT-116 > 100 µM | NCI-H226 > 100 µM | ACHN > 100 µM | SNB-75 84.5 µM | SW-620 > 100 µM | COLO 205 > 100 µM

Reference: ChEMBL document CHEMBL1201862, “PubChem BioAssay data set” (2004)
